The NIST ThermoML archive (doi:10.1016/j.fluid.2011.11.013)
± gives the expanded uncertainty stated by the source.

Conditions: Liquid, Closed cell (Static) method

| SMILES | vapor or sublimation pressure (258.15 K) | vapor or sublimation pressure (263.15 K) | vapor or sublimation pressure (273.15 K) | vapor or sublimation pressure (283.15 K) |
| --- | --- | --- | --- | --- |
| FC(F)(F)I [trifluoroiodomethane] | 133 ± 1.1 kPa | 160.4 ± 1.1 kPa | 228.4 ± 1.2 kPa | 316.4 ± 1.4 kPa |
| FC(F)C(F)F [1,1,2,2-tetrafluoroethane] | 124.3 ± 1.1 kPa | 153 ± 1.1 kPa | 225.9 ± 1.2 kPa | 323.4 ± 1.5 kPa |
